pIC50: −log10 of the molar value.
Legend:
[1] = molecular target: Cyclin-dependent kinase 2/cyclin A (Homo sapiens) (UniProt P24941+P20248+P78396); assay: Inhibition of CDK2/cyclin A (unknown origin) using […] at 1 uM incubated for 40 mins in presence of ATP by Kinase-Glo assay relative to control; type: protein-complex assay
[2] = molecular target: CDK9/cyclin T1 (Homo sapiens) (UniProt O60563+P50750); assay: Inhibition of CDK9/cyclin T (unknown origin) using […] at 1 uM incubated for 40 mins in presence of ATP by Kinase-Glo assay relative to control; type: protein-complex assay
[3] = system: HCT-116; assay: Cytotoxicity against human HCT-116 cells assessed as cell growth inhibition incubated for 48 hrs by MTT assay; type: functional, cell-based; conditions: HCT-116, 48 h
[4] = molecular target: Cyclin-dependent kinase 2/cyclin A (Homo sapiens, UniProt P24941); assay: Inhibition of CDK2/cyclin A (unknown origin) using […] incubated for 40 mins in presence of ATP by Kinase-Glo assay; type: protein-complex assay
[5] = Inhibition of CDK9/cyclin T (unknown origin) using […] incubated for 40 mins in presence of ATP by Kinase-Glo assay; set-up: species or system Homo sapiens
[6] = Inhibition of CDK1/cyclin B (unknown origin) using […] incubated for 40 mins in presence of ATP by Kinase-Glo assay; set-up: species or system Homo sapiens
[7] = system: MDA-MB-231; assay: Antiproliferative activity against human MDA-MB-231 cells assessed as cell growth inhibition incubated for 48 hrs by MTT assay; type: functional, cell-based; conditions: MDA-MB-231, 48 h
[8] = system: MCF7; assay: Antiproliferative activity against human MCF7 cells assessed as cell growth inhibition incubated for 48 hrs by MTT assay; type: functional, cell-based; conditions: MCF7, 48 h
[9] = system: HeLa; assay: Antiproliferative activity against human HeLa cells assessed as cell growth inhibition incubated for 48 hrs by MTT assay; type: functional, cell-based
[10] = system: HT-29; assay: Antiproliferative activity against human HT-29 cells assessed as cell growth inhibition incubated for 48 hrs by MTT assay; type: functional, cell-based; conditions: HT-29, 48 h
[11] = system: U-87 MG; assay: Antiproliferative activity against human U-87 MG cells assessed as cell growth inhibition incubated for 48 hrs by MTT assay; type: functional, cell-based, U-87MG ATCC
[12] = system: HepG2; assay: Antiproliferative activity against human HepG2 cells assessed as cell growth inhibition incubated for 48 hrs by MTT assay; type: functional, cell-based; conditions: HepG2, 48 h
[13] = system: MV4-11; assay: Antiproliferative activity against human MV4-11 cells assessed as cell growth inhibition incubated for 48 hrs by MTT assay; type: functional, cell-based; conditions: MV4-11, 48 h
[14] = system: A549; assay: Antiproliferative activity against human A549 cells assessed as cell growth inhibition incubated for 48 hrs by MTT assay; type: functional, cell-based; conditions: A549, 48 h
[15] = system: A2780; assay: Antiproliferative activity against human A2780 cells assessed as cell growth inhibition incubated for 48 hrs by MTT assay; type: functional, cell-based; conditions: A2780, 48 h
[16] = Antiproliferative activity against HEK293 cells assessed as cell growth inhibition incubated for 48 hrs by MTT assay; type: toxicity, cell-based; conditions: human
[17] = molecular target: Aurora kinase A (Homo sapiens) (UniProt O14965); assay: Inhibition of Aurora A (unknown origin) at 1 uM relative to control
Sequence of Aurora kinase A (Homo sapiens) (O14965 whole entry): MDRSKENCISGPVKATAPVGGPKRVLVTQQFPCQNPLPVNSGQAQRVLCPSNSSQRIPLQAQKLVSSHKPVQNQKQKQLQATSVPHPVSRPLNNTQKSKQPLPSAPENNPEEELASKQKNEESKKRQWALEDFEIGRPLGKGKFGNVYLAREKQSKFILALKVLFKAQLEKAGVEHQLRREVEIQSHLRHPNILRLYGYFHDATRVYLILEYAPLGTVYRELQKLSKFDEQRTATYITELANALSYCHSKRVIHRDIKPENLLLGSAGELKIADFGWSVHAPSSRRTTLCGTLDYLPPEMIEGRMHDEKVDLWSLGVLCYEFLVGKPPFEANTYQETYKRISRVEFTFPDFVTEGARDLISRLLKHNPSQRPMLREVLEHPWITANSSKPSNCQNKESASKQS

[18] = molecular target: Glycogen synthase kinase-3 alpha (Homo sapiens) (UniProt P49840); assay: Inhibition of GSK3-alpha (unknown origin) at 1 uM relative to control
Sequence of Glycogen synthase kinase-3 alpha (Homo sapiens) (P49840 2-483 limits assumed): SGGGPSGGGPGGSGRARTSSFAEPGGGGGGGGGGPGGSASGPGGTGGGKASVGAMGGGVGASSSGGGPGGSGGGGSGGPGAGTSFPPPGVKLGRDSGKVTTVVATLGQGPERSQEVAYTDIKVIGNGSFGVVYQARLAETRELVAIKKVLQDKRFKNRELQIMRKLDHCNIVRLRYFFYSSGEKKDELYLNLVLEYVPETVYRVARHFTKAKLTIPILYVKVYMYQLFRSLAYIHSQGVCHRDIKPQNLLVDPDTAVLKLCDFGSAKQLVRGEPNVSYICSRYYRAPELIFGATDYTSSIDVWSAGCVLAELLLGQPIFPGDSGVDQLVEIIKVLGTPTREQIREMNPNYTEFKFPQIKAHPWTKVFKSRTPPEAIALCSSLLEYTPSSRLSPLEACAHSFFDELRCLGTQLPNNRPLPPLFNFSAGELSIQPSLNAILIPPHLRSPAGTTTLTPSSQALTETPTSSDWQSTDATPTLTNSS

[19] = organism: Homo sapiens; assay: Inhibition of c-Src (unknown origin) at 1 uM relative to control

inhibition [1] [%] | inhibition [2] [%] | pIC50 [4] | pIC50 [5] | Structure (SMILES) | pIC50 [3] | also measured
47 | 29 | – | – | COc1ccc(Nc2nccc(Nc3cc[nH]n3)n2)cc1 | < 5.00 | –
– | – | 7.42 | 7.85 | NS(=O)(=O)c1ccc(Nc2nccc(Nc3ncc([N+](=O)[O-])s3)n2)cc1 | 5.05 | –
81 | 83 | – | – | CCOC(=O)c1sc(Nc2nc(Nc3ccc(S(N)(=O)=O)cc3)ncc2C)nc1C | < 5.00 | –
76 | 62 | – | – | Cc1cnc(Nc2ccc(S(=O)(=O)NC3CC3)cc2)nc1Nc1nccs1 | 5.02 | –
– | – | 7.49 | 7.05 | Cc1cnc(Nc2ccc(S(N)(=O)=O)cc2)nc1Nc1nc(-c2ccc(F)cc2)cs1 | 5.22 | –
– | 46 | 7.37 | – | COCCNS(=O)(=O)c1ccc(Nc2ncc(C)c(Nc3nccs3)n2)cc1 | 5.13 | –
79 | 7 | – | – | Cc1cnc(Nc2ccc(S(=O)(=O)N3CCOCC3)cc2)nc1Nc1nccs1 | < 5.00 | –
81 | 31 | – | – | Cc1cnc(Nc2ccc(S(=O)(=O)NC(C)C)cc2)nc1Nc1nccs1 | < 5.00 | –
– | – | 8.00 | 7.29 | Cc1csc(Nc2nc(Nc3ccc(S(N)(=O)=O)cc3)ncc2C)n1 | 5.49 | –
44 | 19 | – | – | COC(=O)c1sc(Nc2nc(Nc3ccc(S(N)(=O)=O)cc3)ncc2OC)nc1C | < 5.00 | –
67 | 31 | – | – | COC(=O)c1sc(Nc2ccnc(Nc3ccc(S(N)(=O)=O)cc3)n2)nc1C | 5.06 | –
84 | 83 | – | – | Cc1cnc(Nc2ccc(S(N)(=O)=O)cc2)nc1Nc1nc(-c2ccc(C(C)C)cc2)cs1 | 5.51 | –
– | – | 6.95 | 7.96 | COc1cnc(Nc2ccc(S(N)(=O)=O)cc2)nc1Nc1nccs1 | < 5.00 | –
85 | 19 | – | – | CNS(=O)(=O)c1ccc(Nc2ncc(C)c(Nc3nccs3)n2)cc1 | < 5.00 | –
65 | 27 | – | – | CC(C)c1ccc(-c2csc(Nc3nc(Nc4ccc(S(N)(=O)=O)cc4)ncc3F)n2)cc1 | < 5.00 | –
– | – | 7.28 | 6.91 | NS(=O)(=O)c1ccc(Nc2nccc(Nc3nccs3)n2)cc1 | 5.86 | –
– | – | 7.26 | 7.89 | Cc1cnc(Nc2ccc(S(C)(=O)=O)cc2)nc1Nc1nccs1 | 5.22 | –
– | 84 | 7.28 | – | COC(=O)c1sc(Nc2nc(Nc3ccc(S(N)(=O)=O)cc3)ncc2C)nc1C | < 5.00 | –
72 | 75 | – | – | COc1cnc(Nc2ccc(S(N)(=O)=O)cc2)nc1Nc1ncc(C)s1 | 5.01 | –
– | – | 7.96 | 6.53 | Cc1cnc(Nc2ccc(S(N)(=O)=O)cc2)nc1Nc1nc(C(C)C)cs1 | 5.23 | –
– | – | 5.39 | 4.58 | CCOC(=O)CNc1ccnc(Nc2ccc(OC)cc2)n1 | < 5.00 | pIC50 [6]: < 4.52; pIC50 [7]: 4.49; pIC50 [8]: < 4.52; pIC50 [9]: 4.53; pIC50 [10]: < 4.52; pIC50 [11]: < 4.52; pIC50 [12]: < 4.52; pIC50 [13]: 4.55; pIC50 [14]: < 4.52; pIC50 [15]: < 4.52; IC50 at 48 h [16]: 126000 nM
– | 29 | 8.30 | – | Cc1cnc(Nc2ccnc(Nc3ccc(S(N)(=O)=O)cc3)n2)s1 | 6.28 | –
85 | 76 | – | – | Cc1csc(Nc2ccnc(Nc3ccc(S(N)(=O)=O)cc3)n2)n1 | < 5.00 | –
82 | 79 | – | – | CCOC(=O)c1cnc(Nc2nc(Nc3ccc(S(N)(=O)=O)cc3)ncc2C)s1 | 5.34 | –

inhibition [1] [%] | inhibition [2] [%] | pIC50 [4] | pIC50 [5] | Structure (SMILES) | pIC50 [3] | also measured
9 | 6 | – | – | Fc1ccc(Nc2nccc(Nc3nccs3)n2)cc1 | < 5.00 | –
– | 66 | 7.92 | – | Cc1cnc(Nc2nc(Nc3ccc(S(N)(=O)=O)cc3)ncc2F)s1 | 6.04 | –
78 | – | – | 8.70 | Cc1cnc(Nc2nc(Nc3ccc(S(N)(=O)=O)cc3)ncc2C)s1 | 6.16 | –
– | – | 6.96 | 6.33 | CS(=O)(=O)c1ccc(Nc2nccc(Nc3nccs3)n2)cc1 | 5.02 | –
59 | 63 | – | – | CC(C)c1ccc(-c2csc(Nc3ccnc(Nc4ccc(S(N)(=O)=O)cc4)n3)n2)cc1 | 5.19 | –
– | 51 | 7.96 | – | NS(=O)(=O)c1ccc(Nc2ncc(F)c(Nc3nc(C4CC4)cs3)n2)cc1 | 5.10 | –
– | 65 | 6.96 | – | NS(=O)(=O)c1ccc(Nc2nccc(Nc3nc(-c4ccc(F)cc4)cs3)n2)cc1 | 5.36 | –
– | 41 | 7.64 | – | NS(=O)(=O)c1ccc(Nc2ncc(F)c(Nc3nc(-c4ccc(F)cc4)cs3)n2)cc1 | 5.28 | –
– | – | 8.30 | 7.34 | Cc1cnc(Nc2ccc(S(N)(=O)=O)cc2)nc1Nc1nc(C2CC2)cs1 | 5.18 | –
61 | 18 | – | – | c1ccc(Nc2nccc(Nc3nccs3)n2)cc1 | < 5.00 | –
79 | 40 | – | – | CCOC(=O)c1cnc(Nc2nc(Nc3ccc(S(N)(=O)=O)cc3)ncc2F)s1 | 5.13 | –
– | – | – | 7.74 | Cc1ncc(-c2ccnc(Nc3ccc(S(C)(=O)=O)cc3)n2)n1C(C)C [AZD-5438] | 6.32 | inhibition [17]: > 50%; inhibition [18]: > 50%; inhibition [19]: > 50%; pIC50 [7]: 6.82; pIC50 [10]: 5.94; pIC50 [11]: < 4.52; pIC50 [12]: 4.91; pIC50 [13]: 5.68; pIC50 [14]: 5.83; pIC50 [15]: 5.90; IC50 at 48 h [16]: 18000 nM
– | – | 8.10 | 7.42 | CC(C)c1csc(Nc2nc(Nc3ccc(S(N)(=O)=O)cc3)ncc2F)n1 | 5.41 | –
30 | 49 | – | – | COc1cc(Nc2nccc(Nc3nccs3)n2)cc(OC)c1OC | < 5.00 | –
– | 81 | 7.57 | – | CC(C)c1csc(Nc2ccnc(Nc3ccc(S(N)(=O)=O)cc3)n2)n1 | 5.13 | –
60 | 21 | – | – | COc1ccc(Nc2nccc(Nc3ncco3)n2)cc1 | < 5.00 | –
– | 4 | 7.59 | – | Cc1cnc(Nc2ccc(S(=O)(=O)N3CCCCC3)cc2)nc1Nc1nccs1 | 5.52 | –
– | – | 7.80 | 7.34 | NS(=O)(=O)c1ccc(Nc2nccc(Nc3nc(C4CC4)cs3)n2)cc1 | 5.44 | –
– | 69 | 6.33 | – | CCOC(=O)c1sc(Nc2nc(Nc3ccc(S(N)(=O)=O)cc3)ncc2F)nc1C | 5.03 | –
36 | 32 | – | – | CCOC(=O)c1cnc(Nc2nc(Nc3ccc(S(N)(=O)=O)cc3)ncc2OC)s1 | < 5.00 | –
– | – | 8.00 | 6.66 | NS(=O)(=O)c1ccc(Nc2ncc(F)c(Nc3nccs3)n2)cc1 | 5.39 | –
17 | 15 | – | – | Brc1ccc(Nc2nccc(Nc3nccs3)n2)cc1 | 5.16 | –
– | – | 6.04 | 5.73 | COc1ccc(Nc2nccc(Nc3nccs3)n2)cc1 | 5.65 | –
